Data published in the supplement of paper PMC10307832.

What was measured:
Test in all cases: relative viability (nuclei count vs DMSO), 5 days (fraction); higher = more cells survive
[1] = compound: CN(C)CC1=CC(=CC=C1)N=C(C2=CC=CC=C2)C3=C(NC4=C3C=CC(=C4)C(=O)N(C)C)O + CC(=O)Nc1cccc(-n2c(=O)n(C3CC3)c(=O)c3c(Nc4ccc(I)cc4F)n(C)c(=O)c(C)c32)c1 [Trametinib] (partner 0.02 µM)
Summary of the method: (§1)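 Relative viability is defined as nuclei in treated wells over nuclei in vehicle wells. Duplicate plates were run and medians reported. Lung cancer cell lines in 1536-well plates were dosed by pin tool one day after seeding, with one drug or with a fixed anchor-drug dose plus five library-drug doses (not always all listed) in √10 steps, and nuclei were counted after 5 days.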

[2] = compound: CN(C)CC1=CC(=CC=C1)N=C(C2=CC=CC=C2)C3=C(NC4=C3C=CC(=C4)C(=O)N(C)C)O + CS(=O)(=O)CCNCc1ccc(-c2ccc3ncnc(Nc4ccc(OCc5cccc(F)c5)c(Cl)c4)c3c2)o1 [Lapatinib] (partner 2 µM)
Summary of the method: as §1

[3] = compound: CN(C)CC1=CC(=CC=C1)N=C(C2=CC=CC=C2)C3=C(NC4=C3C=CC(=C4)C(=O)N(C)C)O + C[C@]1(O)C[C@@H](c2nc(-c3ccc4ccc(-c5ccccc5)nc4c3)c3c(N)nccn32)C1 [Linsitinib] (partner 1 µM)
Summary of the method: as §1

[4] = compound: CN(C)CC1=CC(=CC=C1)N=C(C2=CC=CC=C2)C3=C(NC4=C3C=CC(=C4)C(=O)N(C)C)O + COc1cccc2cc(-c3nc([C@H]4CC[C@H](C(=O)O)CC4)n4ncnc(N)c34)[nH]c12 [OSI-027] (partner 0.5 µM)
Summary of the method: as §1

Cell Line	relative viability ([1]; first compound 0.08 µM)	relative viability ([1]; first compound 0.253 µM)	relative viability ([1]; first compound 0.8 µM)	relative viability ([1]; first compound 2.53 µM)	relative viability ([1]; first compound 8 µM)	relative viability ([2]; first compound 0.08 µM)	relative viability ([2]; first compound 0.253 µM)	relative viability ([2]; first compound 0.8 µM)	relative viability ([2]; first compound 2.53 µM)	relative viability ([2]; first compound 8 µM)	relative viability ([3]; first compound 0.08 µM)	relative viability ([3]; first compound 0.253 µM)	relative viability ([3]; first compound 0.8 µM)	relative viability ([3]; first compound 2.53 µM)	relative viability ([3]; first compound 8 µM)	relative viability ([4]; first compound 0.08 µM)	relative viability ([4]; first compound 0.253 µM)	relative viability ([4]; first compound 0.8 µM)	relative viability ([4]; first compound 2.53 µM)	relative viability ([4]; first compound 8 µM)
201T	0.71	0.693	0.73	0.716	0.657	0.95	1.01	1.01	1.02	0.981	1.07	1.06	0.937	1.04	0.927	0.737	0.736	0.762	0.586	0.584
A549	–	–	–	–	–	0.962	1.01	1.02	0.945	0.934	0.595	0.575	0.518	0.544	0.475	–	–	–	–	–
A-427	0.752	0.787	0.776	0.686	0.663	1.03	1.06	1.09	1.03	1.1	1.08	1.1	1.13	1.01	1.06	0.472	0.429	0.497	0.509	0.36
ABC-1	–	–	–	–	–	1.19	1.13	1.02	0.827	0.938	0.773	0.965	0.709	0.728	0.73	0.433	0.504	0.442	0.568	0.447
BEN	1.01	0.799	1.2	1.01	0.941	0.734	0.647	0.72	0.685	0.656	0.98	0.876	0.793	0.846	0.75	0.286	0.31	0.25	0.306	0.289
CAL-12T	0.389	0.399	0.338	0.459	0.354	–	0.746	0.878	–	0.755	0.779	0.838	0.799	0.771	0.841	0.736	0.746	0.686	0.849	0.527
COR-L23	0.688	0.551	0.589	0.517	0.567	1.05	0.895	0.922	0.92	0.975	1.06	0.889	1.07	0.878	0.759	0.722	0.788	0.818	0.741	0.732
COR-L 105	0.508	0.447	0.381	0.492	0.398	0.384	0.406	0.318	0.357	0.349	0.888	0.838	1.1	1.02	0.805	0.634	0.641	0.477	0.687	0.609
Calu-6	–	–	–	–	–	1.13	1.01	1.02	1.07	1.03	0.951	0.877	0.989	0.911	0.885	–	–	–	–	–
ChaGo-K-1	0.857	0.89	0.882	0.835	0.808	–	–	–	–	–	–	–	–	–	–	0.584	0.582	0.609	0.588	0.527
EBC-1	–	–	–	–	–	0.223	0.248	0.227	0.198	0.225	1.02	0.964	1.05	1	1.08	–	–	–	–	–
EKVX	0.32	0.389	–	0.432	0.438	0.196	0.294	0.205	0.224	0.23	1.1	0.925	1.05	1.06	1.07	0.718	0.726	0.781	0.764	0.739
EMC-BAC-2	0.942	0.965	0.886	0.881	0.969	0.927	0.914	0.953	0.898	0.878	0.884	0.797	0.778	0.787	0.717	0.369	0.416	0.392	0.356	0.391
EPLC-272H	0.335	0.318	0.289	0.304	0.266	0.927	0.996	0.845	0.955	0.989	1.21	1.11	0.937	1.15	0.934	0.312	0.37	0.264	0.258	0.283
H3255	0.64	0.642	–	0.66	0.692	0.25	0.31	0.235	0.222	0.292	0.881	0.959	0.924	0.954	1.03	0.649	0.592	0.698	0.682	0.632
HARA	0.715	0.632	0.622	0.59	0.84	0.794	0.842	0.686	0.803	0.744	0.965	1.04	0.865	0.921	0.715	0.525	0.553	0.397	0.482	0.319
HCC-15	0.362	0.392	0.356	0.389	0.434	0.891	0.821	0.947	0.776	0.924	0.869	0.849	0.976	0.974	0.805	0.705	0.692	0.77	0.6	0.719
HCC-44	1.04	1.04	1.08	1.04	1.12	0.953	1.03	0.986	0.937	1.03	0.67	0.683	0.641	0.613	0.664	0.67	0.584	0.6	0.392	0.533
HCC-78	0.79	0.708	0.868	0.785	0.65	0.785	1.48	0.722	0.707	0.741	0.62	0.452	0.475	0.535	0.511	0.394	0.406	0.508	0.406	0.377

Cell Line	relative viability ([1]; first compound 0.08 µM)	relative viability ([1]; first compound 0.253 µM)	relative viability ([1]; first compound 0.8 µM)	relative viability ([1]; first compound 2.53 µM)	relative viability ([1]; first compound 8 µM)	relative viability ([2]; first compound 0.08 µM)	relative viability ([2]; first compound 0.253 µM)	relative viability ([2]; first compound 0.8 µM)	relative viability ([2]; first compound 2.53 µM)	relative viability ([2]; first compound 8 µM)	relative viability ([3]; first compound 0.08 µM)	relative viability ([3]; first compound 0.253 µM)	relative viability ([3]; first compound 0.8 µM)	relative viability ([3]; first compound 2.53 µM)	relative viability ([3]; first compound 8 µM)	relative viability ([4]; first compound 0.08 µM)	relative viability ([4]; first compound 0.253 µM)	relative viability ([4]; first compound 0.8 µM)	relative viability ([4]; first compound 2.53 µM)	relative viability ([4]; first compound 8 µM)
HCC-366	0.47	0.323	0.325	0.339	0.24	0.949	0.939	1.07	1.01	1.08	0.737	0.602	0.657	0.473	0.354	0.999	1.1	0.971	0.878	0.414
HCC-827	0.541	0.491	0.429	0.495	0.49	0.218	0.191	0.197	0.191	0.191	0.984	0.944	1.03	0.925	0.937	0.795	0.712	0.749	0.686	0.699
HOP-62	0.363	0.361	0.391	0.362	0.339	1.03	1.11	1.14	1.05	0.946	1.11	1.08	0.99	1.1	1.16	0.852	0.847	0.827	0.769	0.799
IA-LM	–	–	–	–	–	0.781	0.916	0.872	0.948	1.07	0.666	0.645	0.773	0.767	0.544	–	–	–	–	–
LC-2-ad	0.86	0.885	0.893	0.866	0.841	1.03	0.893	0.879	0.876	0.981	0.844	0.745	0.884	0.808	0.593	0.935	0.73	0.867	0.732	0.614
LCLC-97TM1	0.231	0.222	0.2	0.191	0.176	1.14	1.02	1.13	1.37	0.574	0.212	0.193	0.179	0.148	0.231	0.611	0.627	0.543	0.436	0.656
LCLC-103H	0.707	0.623	0.642	0.675	0.619	–	–	–	–	–	1.15	1.11	0.941	0.904	0.908	0.452	0.538	0.493	0.493	0.452
LK-2	0.776	0.861	0.674	0.835	0.655	1.05	0.97	0.898	0.841	0.637	0.546	0.517	0.514	0.723	0.222	0.189	0.228	0.241	0.211	0.185
LOU-NH91	0.76	0.807	0.759	0.818	0.788	0.721	0.836	0.75	0.743	0.697	0.975	0.946	0.68	0.925	0.952	0.691	0.713	0.561	0.762	0.689
LU99A	0.504	0.499	0.571	0.482	0.411	1.06	1	1.01	0.922	0.756	0.546	0.545	0.496	0.534	0.485	0.245	0.346	0.341	0.297	0.286
LXF-289	0.669	0.628	0.643	0.573	0.655	0.888	0.887	0.893	0.86	0.815	0.935	0.931	0.955	0.857	0.915	0.769	0.731	0.707	0.713	0.639
NCI-H441	0.495	0.508	0.354	0.444	0.462	–	–	–	–	–	0.593	0.539	0.507	0.496	0.418	0.522	0.703	0.74	0.568	0.39
NCI-H522	0.709	0.84	0.735	0.746	0.667	–	–	–	–	–	–	–	–	–	–	0.68	0.693	0.694	0.651	0.643
NCI-H1563	–	–	–	–	–	1.04	0.894	0.815	0.683	0.817	1.19	1.28	1.15	1.08	1.14	0.723	0.811	0.775	0.766	0.708
NCI-H1648	0.482	0.368	–	0.534	0.554	–	–	–	–	–	–	–	–	–	–	0.266	–	0.308	0.277	0.252
NCI-H1650	0.69	0.569	0.63	0.604	0.601	0.688	0.828	0.86	0.736	0.647	–	–	–	–	–	0.756	0.686	0.612	0.714	0.524
NCI-H1703	–	–	–	–	–	1.12	1.22	1.48	0.762	0.296	0.625	0.781	0.701	0.61	0.192	–	–	–	–	–
NCI-H2170	0.899	0.892	0.758	0.917	0.809	0.278	0.277	0.286	0.273	0.271	–	–	–	–	–	0.739	0.75	0.465	0.69	0.676
NCI-H2342	0.894	0.751	0.727	0.906	1.23	–	–	–	–	–	–	–	–	–	–	0.63	0.535	0.621	0.708	0.65
